The term Ki denotes a dissociation constant, usually derived from enzyme kinetics or from competition with a known ligand. Low values mean tighter binding, high ones weaker binding.

23 compounds from ChEMBL document CHEMBL1154936, “Synthesis, SAR and intramolecular hydrogen bonding pattern of 1,3,5-trisubstituted 4,5-dihydropyrazoles as potent cannabinoid CB(1) receptor antagonists” (Bioorg Med Chem Lett, 2010) can be followed below.

In one test the target is Cannabinoid receptor 2 (Homo sapiens, UniProt P34972). The test is described as follows: Displacement of [3H]CP-55940 from human cannabinoid CB2 receptor expressed in CHO cells. The format is cell-based. (Displacement assays read how much labelled ligand stays bound in the presence of the test substance.)
A further test deals with Rattus norvegicus. Kind of test: Inhibition of CP-55940-induced hypotension in po dosed rat. It counts as functional. As to conditions: read-out: ID50 (the source's name).
The target of test [1] is T1, Cannabinoid receptor 1 (Homo sapiens, UniProt P21554). The test is described as follows: Antagonist activity at human cannabinoid CB1 receptor expressed in CHO cells assessed as inhibition of CP-55940-induced [3H]arachidonic acid release. It counts as functional, cell-based. As to conditions: read-out: pA2 (converted).
In test [2] the target is T1, Cannabinoid receptor 1. Kind of test: Displacement of [3H]CP-55940 from human cannabinoid CB1 receptor expressed in CHO cells. The format is cell-based.

T1 sequence (P21554 whole entry): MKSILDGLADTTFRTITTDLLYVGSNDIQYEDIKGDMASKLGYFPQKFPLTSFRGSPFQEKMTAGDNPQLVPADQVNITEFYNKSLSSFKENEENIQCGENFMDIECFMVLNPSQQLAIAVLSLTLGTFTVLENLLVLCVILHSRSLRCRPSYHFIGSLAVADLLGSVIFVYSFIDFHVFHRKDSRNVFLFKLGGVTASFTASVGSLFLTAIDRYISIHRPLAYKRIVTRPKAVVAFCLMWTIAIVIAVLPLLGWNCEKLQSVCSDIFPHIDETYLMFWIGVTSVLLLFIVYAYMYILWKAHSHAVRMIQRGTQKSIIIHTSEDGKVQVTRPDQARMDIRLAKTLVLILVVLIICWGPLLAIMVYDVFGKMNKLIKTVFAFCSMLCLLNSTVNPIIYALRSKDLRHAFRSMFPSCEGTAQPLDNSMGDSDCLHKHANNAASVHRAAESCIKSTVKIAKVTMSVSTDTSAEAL
Chain of Cannabinoid receptor 2 (P34972 whole entry): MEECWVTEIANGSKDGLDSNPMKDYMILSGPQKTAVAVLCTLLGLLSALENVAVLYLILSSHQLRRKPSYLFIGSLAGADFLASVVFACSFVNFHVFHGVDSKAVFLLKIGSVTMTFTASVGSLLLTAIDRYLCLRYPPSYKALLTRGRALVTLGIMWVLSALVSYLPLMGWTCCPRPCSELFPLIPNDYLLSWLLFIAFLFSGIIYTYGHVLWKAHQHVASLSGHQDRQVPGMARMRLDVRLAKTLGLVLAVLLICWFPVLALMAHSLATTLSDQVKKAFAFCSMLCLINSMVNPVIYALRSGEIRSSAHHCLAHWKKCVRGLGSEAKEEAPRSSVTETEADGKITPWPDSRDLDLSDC

Consider `CN/C(=N\S(=O)(=O)N1CCC(F)(F)CC1)C1=NN(c2ccc(Cl)cc2)[C@@H](c2ccccc2)C1`, for which the inhibition constant (Ki) on Cannabinoid receptor 2 is more than 1000 nM; on Cannabinoid receptor 1 [2] it was 9.2 nM. In the test on Rattus norvegicus, the ED50 came to 5 mg/kg. For the same compound, at Cannabinoid receptor 1 [1], the Kb was 1.58 nM.

In the case of `CN/C(=N\S(=O)(=O)N1CCCCC1)N1C[C@H](c2ccccc2)C(c2ccc(Cl)cc2)=N1`, the ED50 in the test with Rattus norvegicus came out at 8 mg/kg.

On to `CN/C(=N\S(=O)(=O)N1CCC(C(F)(F)F)CC1)C1=NN(c2ccc(Cl)cc2)C(c2ccccc2)C1` (stereo not given), for which the Ki amounted to 606 nM at Cannabinoid receptor 2 and 7.6 nM at Cannabinoid receptor 1 [2]. The Kb at Cannabinoid receptor 1 [1] was 0.398 nM.

As for `CN=C(NS(=O)(=O)N1CCC(F)(F)CC1)C1=NN(c2ccc(Cl)cc2)C(c2ccccc2)C1` (stereo not given), the figures for the inhibition constant (Ki) on Cannabinoid receptor 2 and on Cannabinoid receptor 1 [2] were more than 1000 nM and 38.8 nM, respectively. Also, the ED50 in the test with Rattus norvegicus turned out to be 9 mg/kg. Moreover, on Cannabinoid receptor 1 [1], the Kb was 0.794 nM.

Take `CN/C(=N\S(=O)(=O)c1ccc(F)cc1)C1=NN(c2ccc(Cl)cc2)C(c2ccccc2)C1` (stereo not given): the values for the Ki at Cannabinoid receptor 2 and on Cannabinoid receptor 1 [2] were more than 1000 nM and 21.7 nM, respectively. For the same compound, the ED50 in the test on Rattus norvegicus stood at 30 mg/kg. Also, on Cannabinoid receptor 1 [1], the Kb is 10 nM.

In the case of `CNC(=NS(=O)(=O)N1CCC(C(F)(F)F)CC1)N1C[C@H](c2ccccc2)C(c2ccc(Cl)cc2)=N1`, the Ki was found to be 305 nM at Cannabinoid receptor 2 and 4.7 nM at Cannabinoid receptor 1 [2]. Besides, in the test with Rattus norvegicus, the ED50 came to 2 mg/kg. Moreover, at Cannabinoid receptor 1 [1], the Kb was 0.251 nM.

For the compound `CN/C(=N\S(=O)(=O)N1CCC(F)CC1)C1=NN(c2ccc(Cl)cc2)C(c2ccccc2)C1` (stereo not given), the Ki on Cannabinoid receptor 2 was more than 1000 nM; at Cannabinoid receptor 1 [2], 55 nM. In the test on Rattus norvegicus, the ED50 was more than 30 mg/kg. Further, the Kb at Cannabinoid receptor 1 [1] was 3.98 nM.

Turning to `CN/C(=N\S(=O)(=O)c1ccc(C(F)(F)F)cc1)C1=NN(c2ccc(Cl)cc2Cl)C(c2ccccc2)C1` (stereo not given), the inhibition constant Ki at Cannabinoid receptor 2 stood at 179 nM; at Cannabinoid receptor 1 [2], 11.3 nM. In the test on Rattus norvegicus, the ED50 was more than 30 mg/kg. Further, on Cannabinoid receptor 1 [1], the Kb was 2.51 nM.

As to `CN/C(=N\S(=O)(=O)c1ccc(Cl)cc1)N1CC(c2ccccc2)C(c2ccc(Cl)cc2)=N1` (stereo not drawn) [RAC-IBIPINABANT], the ED50 in the test on Rattus norvegicus worked out at 15 mg/kg.

Turning to `CN/C(=N\S(=O)(=O)c1cccc(Cl)c1)C1=NN(c2ccc(Cl)cc2Cl)C(c2ccccc2)C1` (stereo not given), the Ki on Cannabinoid receptor 2 was 330 nM; on Cannabinoid receptor 1 [2], 53 nM. Also, in the test with Rattus norvegicus, the ED50 was more than 30 mg/kg. In addition, the Kb on Cannabinoid receptor 1 [1] was 5.01 nM.

Turning to `CNC(=NS(=O)(=O)N1CCC(F)(F)CC1)N1C[C@@H](c2ccccc2)C(c2ccc(Cl)cc2)=N1`, the Ki at Cannabinoid receptor 2 was more than 1000 nM; at Cannabinoid receptor 1 [2] it was 463 nM. Further, in the test on Rattus norvegicus, the ED50 was more than 30 mg/kg. Besides, the Kb at Cannabinoid receptor 1 [1] was 398 nM.

As to `CNC(=NS(=O)(=O)N1CCC(C(F)(F)F)CC1)N1C[C@@H](c2ccccc2)C(c2ccc(Cl)cc2)=N1`, the Ki on Cannabinoid receptor 2 is more than 1000 nM; on Cannabinoid receptor 1 [2], 140 nM. Also, in the test on Rattus norvegicus, the ED50 is more than 30 mg/kg. Besides, the Kb at Cannabinoid receptor 1 [1] is 50.1 nM.

Turning to `CN/C(=N\S(=O)(=O)c1ccc(Cl)cc1)C1=NN(c2ccc(Cl)cc2)C(c2ccccc2)C1` (stereo not given), the inhibitory constant (Ki) is more than 1000 nM on Cannabinoid receptor 2 and 84 nM at Cannabinoid receptor 1 [2]. For the same compound, in the test on Rattus norvegicus, the ED50 was more than 30 mg/kg. For the same compound, the Kb at Cannabinoid receptor 1 [1] is 3.98 nM.

Consider `CNC(=NS(=O)(=O)N1CCC(F)CC1)N1CC(c2ccccc2)C(c2ccc(Cl)cc2)=N1` (stereo not given), for which the Ki was more than 1000 nM at Cannabinoid receptor 2 and 7.5 nM on Cannabinoid receptor 1 [2]. Besides, the ED50 with Rattus norvegicus was more than 30 mg/kg. Further, the Kb on Cannabinoid receptor 1 [1] is 1 nM.

As to `CNC(=NS(=O)(=O)N1CCCCC1)C1=NN(c2ccc(Cl)cc2)C(c2ccccc2)C1` (stereo not given), the Ki at Cannabinoid receptor 2 was determined as 1090 nM; at Cannabinoid receptor 1 [2] it was 141 nM. Further, the ED50 in the test on Rattus norvegicus is more than 30 mg/kg. On Cannabinoid receptor 1 [1], the Kb is 12.6 nM.

As for `CN/C(=N\S(=O)(=O)N1CCC(C(F)(F)F)CC1)N1CC(c2ccccc2)C(c2ccc(Cl)cc2)=N1` (stereo not given), the results for the Ki at Cannabinoid receptor 2 and at Cannabinoid receptor 1 [2] were more than 1000 nM and 14.5 nM, respectively. The Kb on Cannabinoid receptor 1 [1] is 0.398 nM.

As to `CN/C(=N\S(=O)(=O)N1CCC(F)(F)CC1)N1CC(c2ccccc2)C(c2ccc(Cl)cc2)=N1` (stereo not given), the ED50 in the test with Rattus norvegicus was 23 mg/kg.

Take `CN/C(=N\S(=O)(=O)N1CCC(F)(F)CC1)C1=NN(c2ccc(Cl)cc2)[C@H](c2ccccc2)C1`: the inhibitory constant (Ki) on Cannabinoid receptor 2 is more than 1000 nM; on Cannabinoid receptor 1 [2], 280 nM. Moreover, the ED50 with Rattus norvegicus was more than 30 mg/kg. Further, at Cannabinoid receptor 1 [1], the Kb was more than 200 nM.

Take `CNC(=NS(=O)(=O)N1CCC(F)(F)CC1)N1C[C@H](c2ccccc2)C(c2ccc(Cl)cc2)=N1`: the Ki at Cannabinoid receptor 2 is more than 1000 nM; on Cannabinoid receptor 1 [2] it was 42 nM. Besides, the ED50 with Rattus norvegicus amounted to 6 mg/kg. Moreover, the Kb on Cannabinoid receptor 1 [1] is 1 nM.

Take `CNC(=NS(=O)(=O)N1CCC(C(F)(F)F)CC1)C1=NN(c2ccc(Cl)cc2)[C@H](c2ccccc2)C1`: the results for the Ki on Cannabinoid receptor 2 and at Cannabinoid receptor 1 [2] were more than 1000 nM and 58 nM, respectively. Besides, the Kb at Cannabinoid receptor 1 [1] is 6.31 nM.

For `CNC(=NS(=O)(=O)N1CCC(C(F)(F)F)CC1)C1=NN(c2ccc(Cl)cc2)[C@@H](c2ccccc2)C1`, the figures for the inhibitory constant (Ki) on Cannabinoid receptor 2 and at Cannabinoid receptor 1 [2] were 584 nM and 2 nM, respectively.

For the compound `CN/C(=N\S(=O)(=O)c1ccc(Cl)cc1)C1=NN(c2ccc(Cl)cc2Cl)C(c2ccccc2)C1` (stereo not given), the inhibition constant Ki was 248 nM on Cannabinoid receptor 2 and 37 nM at Cannabinoid receptor 1 [2]. Further, in the test with Rattus norvegicus, the ED50 is more than 30 mg/kg. Besides, the Kb on Cannabinoid receptor 1 [1] is 1 nM.

Turning to `CN/C(=N\S(=O)(=O)c1ccc(Cl)cc1)N1C[C@H](c2ccccc2)C(c2ccc(Cl)cc2)=N1` [IBIPINABANT], the ED50 in the test with Rattus norvegicus came to 5.5 mg/kg.
